Data reported in US6252121A, “Metal-ligand complex catalyzed processes” (Union Carbide Chemicals & Plastics Technology Corporation, priority 1999, dated 2001).
Values belong to the compound of their own block, whether it stands above or below them.

How the values were obtained:
[1] = Partition of polar hydroformylation products, acetonitrile/hexane (GC); type: physicochemical; settings: hexane/acetonitrile equal volumes
Protocol: The efficiency of the phase separation can be measured by a partition coefficient Kp of the one or more cyclic products which is defined as follows: [formula]
Solutions of polar hydroformylation products were prepared in acetonitrile. To each solution was added an equal volume of hexane, the mixture was vigorously shaken, allowed to settle and phase separate. The two phases were analyzed for polar aldehydes by gas chromatography.

[2] = Miscibility of reaction products with toluene (Comparative Example); type: physicochemical; settings: reaction at 100° C. for 24 hours; no spontaneous phase separation
Protocol: The reaction was carried out at 100° C. for 24 hours. No spontaneous phase separation was observed upon the reaction completion.

[3] = Relative hydroformylation reaction rates with Ligands C and G-J
Protocol: […]. A mixture of 1,2,3,6-tetrahydrobenzaldehyde (6 grams) and octane (4 grams, internal standard) was added to the autoclave. The reaction rate was determined by gas chromatographic analyses of the samples taken during the course of reaction.

[4] = Hydroformylation reaction rate of rhodium/ligand catalyst; settings: 90° C., 300 ppm Rh, ligand/rhodium 20/1
Protocol: […] A mixture of 1,2,3,6-tetrahydrobenzaldehyde (6 grams) and octane (4 grams, internal standard) was added to the autoclave. The reaction rate was determined by gas chromatographic analyses of the samples taken during the course of reaction.
The procedure described in Example 1 was repeated with the modification of using Ligands B-F in place of Ligand A. The reaction rates for Ligands B-F are summarized in Table 1.

[5] = hexane, 100 psi syngas (CO/H2 1:1)
[6] = Tetraglyme, 90° C., L/Rh ratio 20

- Kpartition of polar product ([1]; 10 wt. %): 69
Compound: 3-cyano-1-cyclohexanecarboxaldehyde and 4-cyano-1-cyclohexanecarboxaldehyde [cyanocyclohexanecarboxaldehyde]

- miscibility with toluene [2]: completely miscible with toluene
Compound: tricyclodecane dialdehydes

Compound: O=S(=O)(O)c1cccc(P(C2CCCCC2)C2CCCCC2)c1 [Ligand J]
- Relative Rate ([3]; 1-Methyl-2-pyrrolidinone, 120° C., L/Rh ratio 5): 0.14

Compound: CC(C)(C)c1ccccc1OP(Oc1ccccc1C(C)(C)C)Oc1ccccc1C(C)(C)C [Ligand B]
- reaction rate [4, 5]: 3.4 mol/L-hr

Compound: COc1ccc(Op2oc3c(C(C)(C)C)cc(OC)cc3c3cc(OC)cc(C(C)(C)C)c3o2)c(C(C)(C)C)c1 [Ligand G]
- Relative Rate [3, 6]: 0.46

Compound: CCCCCCCCCC(C)(C)c1ccc(OP(Oc2ccc(C(C)(C)CCCCCCCCC)cc2C(C)(C)CCCCCCCCC)Oc2ccc(C(C)(C)CCCCCCCCC)cc2C(C)(C)CCCCCCCCC)c(C(C)(C)CCCCCCCCC)c1 [Ligand F]
- reaction rate [4, 5]: 3.3 mol/L-hr

Compound: C1CCC(P(C2CCCCC2)C2CCCCC2)CC1 [Ligand I]
- Relative Rate ([3]; Tetraglyme, 120° C., L/Rh ratio 5): 0.17

Compound: CC(C)(C)c1ccc(OP(Oc2ccc(C(C)(C)C)cc2C(C)(C)C)Oc2ccc(C(C)(C)C)cc2C(C)(C)C)c(C(C)(C)C)c1 [Ligand C]
- Relative Rate [3, 6]: 1
- reaction rate [4, 5]: 4.0 mol/L-hr
- reaction rate ([4]; toluene in place of hexane, 100 psi syngas): 4.4 mol/L-hr

Compound: CCCCCC(C)(C)c1ccc(OP(Oc2ccc(C(C)(C)CCCCC)cc2C(C)(C)CCCCC)Oc2ccc(C(C)(C)CCCCC)cc2C(C)(C)CCCCC)c(C(C)(C)CCCCC)c1 [Ligand E]
- reaction rate [4, 5]: 3.7 mol/L-hr

Compound: CC(C)(C)c1cc(-c2cc(C(C)(C)C)cc(C(C)(C)C)c2Op2oc3ccccc3c3ccccc3o2)c(Op2oc3ccccc3c3ccccc3o2)c(C(C)(C)C)c1 [Ligand H]
- Relative Rate ([3]; Tetraglyme, 90° C., L/Rh ratio 4): 0.34

Compound: CCC(C)(C)c1ccc(OP(Oc2ccc(C(C)(C)CC)cc2C(C)(C)CC)Oc2ccc(C(C)(C)CC)cc2C(C)(C)CC)c(C(C)(C)CC)c1 [Ligand D]
- reaction rate [4, 5]: 3.6 mol/L-hr

- Kpartition of polar product ([1]; 5 wt. %): 38
- Kpartition of polar product ([1]; 10 wt. %): 34
- Kpartition of polar product ([1]; 20 wt. %): 35
Compound: 1,3- and 1,4-cyclohexanedicarboxaldehyde

Compound: CC(C)(c1ccccc1)c1ccc(OP(Oc2ccc(C(C)(C)c3ccccc3)cc2C(C)(C)c2ccccc2)Oc2ccc(C(C)(C)c3ccccc3)cc2C(C)(C)c2ccccc2)c(C(C)(C)c2ccccc2)c1 [Ligand A]
- reaction rate [4, 5]: 2.5 mol/L-hr
